Data: patent US20100267561A1, “HERBICIDAL PYRIDAZINONE DERIVATIVES” (priority 2007, published 2010)

Assays:
Format in all cases: in vivo
[1] = test system: barnyardgrass (Echinochloa crus-galli); assay: Test A pre-/postemergence plant response
In short: (§1)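 Seeds in loam soil/sand blend treated preemergence by directed soil spray, with simultaneous postemergence spray on 2–10 cm plants at one- to two-leaf stage; compounds in non-phytotoxic solvent with surfactant. Injury visually rated versus untreated controls after about 10 days in greenhouse, 0 (no effect) to 100 (complete control).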

corn (Zea mays) = assay: Test A pre-/postemergence plant response
In short: as §1

[2] = test system: giant foxtail (Setaria faberi); assay: Test A pre-/postemergence plant response
In short: as §1

[3] = test system: wheat (Triticum aestivum); assay: Test A pre-/postemergence plant response
In short: as §1

[4] = test system: velvetleaf (Abutilon theophrasti); assay: Test A pre-/postemergence plant response
In short: as §1

[5] = test system: pigweed (Amaranthus retroflexus); assay: Test A pre-/postemergence plant response
In short: as §1

[6] = test system: morningglory (Ipomoea coccinea); assay: Test A pre-/postemergence plant response
In short: as §1

[7] = test system: large crabgrass (Digitaria sanguinalis); assay: Test A pre-/postemergence plant response
In short: as §1

[8] = test system: lambsquarters (Chenopodium album); assay: Test B pre-/postemergence plant response
From the text: (§2) Seeds of plant species selected from blackgrass (Alopecurus myosuroides), downy bromegrass (Bromus tectorum), green foxtail (Setaria viridis), Italian ryegrass (Lolium multiflorum), wheat (Triticum aestivum), wild oat (Avena fatua), catchweed bedstraw (Galium aparine), bermudagrass (Cynodon dactylon), surinam grass (Brachiaria decumbens), cocklebur (Xanthium strumarium), corn (Zea mays), large crabgrass (Digitaria sanguinalis), woolly cupgrass (Eriochloa villosa), giant foxtail (Setaria faberii), goosegrass (Eleusine indica), johnsongrass (Sorghum halepense), kochia (Kochia scoparia), lambsquarters (Chenopodium album), morningglory (Ipomoea coccinea), eastern black (E.B.) nightshade (Solanum ptycanthum), yellow nutsedge (Cyperus esculentus), pigweed (Amaranthus retroflexus), common ragweed (Ambrosia elation), Russian thistle (Salsola iberica), soybean (Glycine max), common (oilseed) sunflower (Helianthus annuus), and velvetleaf (Abutilon theophrasti) were planted and treated preemergence with test chemicals formulated in a non-phytotoxic solvent mixture which included a surfactant.
(§3) At the same time, plants selected from these crop and weed species and also winter barley (Hordeum vulgare), canarygrass (Phalaris minor), chickweed (Stellaria media) and windgrass (Apera spica-venti) were treated with postemergence applications of some of the test chemicals formulated in the same manner. Plants ranged in height from 2 to 18 cm (1- to 4-leaf stage) for postemergence treatments.
(§4) Plant species in the flooded paddy test consisted of rice (Oryza sativa), umbrella sedge (Cyperus difformis), ducksalad (Heteranthera limosa) and barnyardgrass (Echinochloa crus-galli) grown to the 2-leaf stage for testing. At time of treatment, test pots were flooded to 3 cm above the soil surface, treated by application of test compounds directly to the paddy water, and then maintained at that water depth for the duration of the test. Treated plants and controls were maintained in a greenhouse for 13 to 15 days, after which time all species were compared to controls and visually evaluated. Plant response ratings, summarized in Table B, are based on a scale of 0 to 100 where 0 is no effect and 100 is complete control. A dash (-) response means no test result.

[9] = test system: morningglory (Ipomoea coccinea); assay: Test B pre-/postemergence plant response
From the text: as §2, §3, §4

[10] = test system: blackgrass (Alopecurus myosuroides); assay: Test B pre-/postemergence plant response; conditions: for Blackgrass plant response rating: 8 g ai/ha
From the text: as §2, §3, §4

[11] = Postemergence, 31 g ai/ha, 0 to 100 scale, 0 no effect, 100 complete control
[12] = Postemergence, 125 g ai/ha, 0 to 100 scale, 0 no effect, 100 complete control
[13] = Preemergence, 31 g ai/ha, 0 to 100 scale, 0 is no effect, 100 is complete control
[14] = Preemergence, 125 g ai/ha, 0 to 100 scale (0 no effect, 100 complete control)
[15] = 8 g ai/ha, postemergence, 0-100 scale
[16] = Postemergence, 16 g ai/ha, scale 0 to 100
[17] = Postemergence, 31 g ai/ha, scale 0 to 100
[18] = Postemergence, 62 g ai/ha, scale 0 to 100, 0 no effect, 100 complete control
[19] = Preemergence, 31 g ai/ha, scale 0 to 100 (0 no effect, 100 complete control)
[20] = Preemergence, 62 g ai/ha, 0 to 100 scale, 0 no effect, 100 complete control
[21] = Preemergence, 8 g ai/ha, scale 0 to 100
[22] = Preemergence, 16 g ai/ha, scale 0 to 100

For `CCCC(=O)Oc1cnn(C)c(=O)c1-n1nc(-c2ccc(Cl)cc2)cc1C` [Compound 56], the “Plant response rating, Barnyardgrass” value [1, 11] was 100, the “Plant response rating, Barnyardgrass” value [1, 12] was 100 and the “Plant response rating, Barnyardgrass” value [1, 13] was 80. For the same compound, the “Plant response rating, Barnyardgrass” value [1, 14] was 100, the “Plant response rating, Corn” value (corn (Zea mays); [11]) was 90 and the “Plant response rating, Corn” value (corn (Zea mays); [12]) was 100. The “Plant response rating, Corn” value (corn (Zea mays); [13]) was 40, the “Plant response rating, Corn” value (corn (Zea mays); [14]) was 80 and the “Plant response rating, Foxtail, Giant” value [2, 11] was 100. The “Plant response rating, Foxtail, Giant” value [2, 12] was 100, the “Plant response rating, Foxtail, Giant” value [2, 13] was 90 and the “Plant response rating, Foxtail, Giant” value [2, 14] was 100. The “Plant response rating, Wheat” value [3, 11] was 70, the “Plant response rating, Wheat” value [3, 12] was 80 and the “Plant response rating, Wheat” value [3, 13] was 20. For the same compound, the “Plant response rating, Wheat” value [3, 14] was 80, the “Plant response rating, Velvetleaf” value [4, 11] was 0 and the “Plant response rating, Velvetleaf” value [4, 12] was 0. The “Plant response rating, Velvetleaf” value [4, 13] was 0, the “Plant response rating, Velvetleaf” value [4, 14] was 0 and the “Plant response rating, Pigweed” value [5, 11] was 0. For the same compound, the “Plant response rating, Pigweed” value [5, 12] was 0, the “Plant response rating, Pigweed” value [5, 13] was 0 and the “Plant response rating, Pigweed” value [5, 14] was 0. For the same compound, the “Plant response rating, Morningglory” value [6, 11] was 0, the “Plant response rating, Morningglory” value [6, 12] was 0 and the “Plant response rating, Morningglory” value [6, 13] was 0. The “Plant response rating, Morningglory” value [6, 14] was 0, the “Plant response rating, Crabgrass, Large” value [7, 11] was 80 and the “Plant response rating, Crabgrass, Large” value [7, 12] was 100. For the same compound, the “Plant response rating, Crabgrass, Large” value [7, 13] was 70, the “Plant response rating, Crabgrass, Large” value [7, 14] was 100 and the “Lambsquarters plant response rating” value [8, 15] was 0. The “Plant response rating, Lambsquarters” value [8, 16] was 0, the “Plant response rating, Lambsquarters” value [8, 17] was 0 and the “Plant response rating, Lambsquarters” value [8, 18] was 0. For the same compound, the “Plant response rating, Lambsquarters” value [8, 19] was 0, the “Plant response rating, Lambsquarters” value [8, 20] was 20 and the “Lambsquarters plant response rating” value [8, 21] was 0. For the same compound, the “Lambsquarters plant response rating” value [8, 22] was 0, the “Morningglory plant response rating” value [9, 15] was 0 and the “Plant response rating, Morningglory” value [9, 16] was 0. The “Plant response rating, Morningglory” value [9, 17] was 0, the “Plant response rating, Morningglory” value [9, 18] was 0 and the “Plant response rating, Morningglory” value [9, 19] was 0. The “Plant response rating, Morningglory” value [9, 20] was 0, the “Morningglory plant response rating” value [9, 21] was 0 and the “Morningglory plant response rating” value [9, 22] was 0. For the same compound, the “Blackgrass plant response rating” value ([10]; postemergence, 0-100 scale) was 0, the “Plant response rating, Blackgrass” value [10, 16] was 65 and the “Plant response rating, Blackgrass” value [10, 17] was 95. The “Plant response rating, Blackgrass” value [10, 18] was 98, the “Plant response rating, Blackgrass” value ([10]; Preemergence, 16 g ai/ha, scale 0 to 100 (0 no effect, 100 complete control)) was 60 and the “Plant response rating, Blackgrass” value [10, 19] was 98. The “Plant response rating, Blackgrass” value [10, 20] was 98 and the “Blackgrass plant response rating” value ([10]; Preemergence, scale 0 to 100) was 40.

`Cc1nn(C)c(=O)c(-n2nc(-c3ccc(Cl)cc3)cc2Cl)c1O` [Compound 59] was tested, and the “Plant response rating, Barnyardgrass” value [1, 11] was 90, the “Plant response rating, Barnyardgrass” value [1, 12] was 100 and the “Plant response rating, Barnyardgrass” value [1, 13] was 90. For the same compound, the “Plant response rating, Barnyardgrass” value [1, 14] was 100, the “Plant response rating, Corn” value (corn (Zea mays); [11]) was 30 and the “Plant response rating, Corn” value (corn (Zea mays); [12]) was 70. For the same compound, the “Plant response rating, Corn” value (corn (Zea mays); [13]) was 0, the “Plant response rating, Corn” value (corn (Zea mays); [14]) was 60 and the “Plant response rating, Foxtail, Giant” value [2, 11] was 90. The “Plant response rating, Foxtail, Giant” value [2, 12] was 90, the “Plant response rating, Foxtail, Giant” value [2, 13] was 70 and the “Plant response rating, Foxtail, Giant” value [2, 14] was 90. For the same compound, the “Plant response rating, Wheat” value [3, 11] was 0, the “Plant response rating, Wheat” value [3, 12] was 60 and the “Plant response rating, Wheat” value [3, 13] was 0. The “Plant response rating, Wheat” value [3, 14] was 50, the “Plant response rating, Velvetleaf” value [4, 11] was 0 and the “Plant response rating, Velvetleaf” value [4, 12] was 0. The “Plant response rating, Velvetleaf” value [4, 13] was 0, the “Plant response rating, Velvetleaf” value [4, 14] was 0 and the “Plant response rating, Pigweed” value [5, 11] was 0. The “Plant response rating, Pigweed” value [5, 12] was 0, the “Plant response rating, Pigweed” value [5, 13] was 0 and the “Plant response rating, Pigweed” value [5, 14] was 0. The “Plant response rating, Morningglory” value [6, 11] was 0, the “Plant response rating, Morningglory” value [6, 12] was 0 and the “Plant response rating, Morningglory” value [6, 13] was 0. For the same compound, the “Plant response rating, Morningglory” value [6, 14] was 0, the “Plant response rating, Crabgrass, Large” value [7, 11] was 50 and the “Plant response rating, Crabgrass, Large” value [7, 12] was 90. The “Plant response rating, Crabgrass, Large” value [7, 13] was 20, the “Plant response rating, Crabgrass, Large” value [7, 14] was 50 and the “Lambsquarters plant response rating” value [8, 15] was 0. The “Plant response rating, Lambsquarters” value [8, 16] was 0, the “Plant response rating, Lambsquarters” value [8, 17] was 0 and the “Plant response rating, Lambsquarters” value [8, 18] was 0. The “Morningglory plant response rating” value [9, 15] was 0, the “Plant response rating, Morningglory” value [9, 16] was 0 and the “Plant response rating, Morningglory” value [9, 17] was 0. The “Plant response rating, Morningglory” value [9, 18] was 0, the “Blackgrass plant response rating” value ([10]; postemergence, 0-100 scale) was 0 and the “Plant response rating, Blackgrass” value [10, 16] was 60. The “Plant response rating, Blackgrass” value [10, 17] was 90 and the “Plant response rating, Blackgrass” value [10, 18] was 90.
